Laboratory results as given in PMC6423038, “Deferiprone: Pan-selective Histone Lysine Demethylase Inhibition Activity and Structure Activity Relationship Study” (Scientific Reports, 2019).

What was measured:
KDM5C (Jarid1C) = KDM5C (Jarid1C) (Homo sapiens, UniProt P41229); assay: KDM cell-free assay (AlphaScreen, BPS Bioscience)
KDM4A (JMJD2A) = biological target: T1, KDM4A (JMJD2A) (Homo sapiens, UniProt O75164); assay: KDM cell-free assay (AlphaScreen, BPS Bioscience); assay type: biochemical; conditions: recombinant human KDM4A (JMJD2A); max tested 25 μM
T1 construct: purchased BPS Bioscience
T1 sequence (O75164 whole entry): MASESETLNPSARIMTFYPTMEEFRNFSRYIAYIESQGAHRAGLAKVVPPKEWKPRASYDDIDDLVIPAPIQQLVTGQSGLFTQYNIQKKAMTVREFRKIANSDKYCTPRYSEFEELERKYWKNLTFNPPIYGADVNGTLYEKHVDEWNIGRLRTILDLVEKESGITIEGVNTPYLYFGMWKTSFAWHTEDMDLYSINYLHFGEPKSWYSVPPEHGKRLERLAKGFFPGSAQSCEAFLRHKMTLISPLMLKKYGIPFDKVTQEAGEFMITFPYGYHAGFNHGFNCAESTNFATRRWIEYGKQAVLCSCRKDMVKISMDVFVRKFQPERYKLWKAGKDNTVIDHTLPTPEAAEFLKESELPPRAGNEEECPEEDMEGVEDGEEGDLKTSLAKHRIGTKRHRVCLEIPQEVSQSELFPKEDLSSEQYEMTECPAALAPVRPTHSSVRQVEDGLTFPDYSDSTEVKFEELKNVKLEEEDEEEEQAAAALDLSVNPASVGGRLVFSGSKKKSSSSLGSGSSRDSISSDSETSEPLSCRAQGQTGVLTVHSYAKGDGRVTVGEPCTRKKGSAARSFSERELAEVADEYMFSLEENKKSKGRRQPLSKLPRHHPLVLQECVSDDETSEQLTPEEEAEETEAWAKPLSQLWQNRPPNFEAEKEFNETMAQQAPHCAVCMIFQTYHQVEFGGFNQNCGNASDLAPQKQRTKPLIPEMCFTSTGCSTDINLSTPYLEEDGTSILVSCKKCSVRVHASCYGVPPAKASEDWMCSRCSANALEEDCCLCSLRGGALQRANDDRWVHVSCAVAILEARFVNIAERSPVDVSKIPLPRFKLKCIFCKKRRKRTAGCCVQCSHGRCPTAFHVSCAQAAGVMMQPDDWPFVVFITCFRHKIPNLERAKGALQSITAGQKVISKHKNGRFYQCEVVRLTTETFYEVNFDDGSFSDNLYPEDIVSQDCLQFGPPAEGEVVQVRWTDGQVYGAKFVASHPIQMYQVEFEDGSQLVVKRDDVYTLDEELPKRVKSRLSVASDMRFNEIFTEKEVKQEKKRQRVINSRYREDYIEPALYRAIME

MCF-7 = assay: Cell viability assay (MTS), antiproliferative activity; assay type: cell-based; conditions: Homo sapiens, MCF7, 72 h, Table 4
Method: (§1) To preliminarily profile the bioactivity of these compounds, we adopted a streamlined approach which involved screening against KDM6A at two concentrations and evaluating antiproliferative activity against three representative cell lines – MCF-7 (ER(+) BCa), MDA-MB-231 (TNBC BCa) and Vero (a non-transformed cell line as control).
(§2) The In vitro proliferation assay was performed as reported previously[15],[16]. Detailed description of the protocol used is included in the Supplementary Information.
(§3) Cell Viability Assay. All cell lines were purchased form ATCC (Manassas, VA), and they were routinely cultured in different media recommended by the supplier. MCF-7 cells were cultured in non-phenol red DMEM (Corning, Manassas, VA) fortified with 10% charcoal treated fetal bovine serum (FBS; Atlanta Biologicals, GA) and 0.2 mM glutamine (Corning, Manassas, VA), whereas MDA-MB-231, DU-145, and Vero were cultured in DMEM with 10% FBS. […] After 24 h incubation in 37 °C under 5% CO2, cells were treated with serially diluted ligands with final DMSO concentration of 1% and incubated for additional 72 h. MTS (CellTiter 96 Aqueous One Solution Cell Proliferation Assays, Promega, Madison, WI) was added to each well 2.5 h prior to recording the absorbance at 490 nm.

MDA-MB-231 = assay: as above; assay type: cell-based; conditions: Homo sapiens, 72 h, Table 4
Method: as §1, §2, §3

VERO = assay: as above; assay type: cell-based; conditions: Chlorocebus sabaeus, 72 h, Table 4
Method: as §1, §2, §3

KDM5C (Jarid1C), sequence (P41229 whole entry): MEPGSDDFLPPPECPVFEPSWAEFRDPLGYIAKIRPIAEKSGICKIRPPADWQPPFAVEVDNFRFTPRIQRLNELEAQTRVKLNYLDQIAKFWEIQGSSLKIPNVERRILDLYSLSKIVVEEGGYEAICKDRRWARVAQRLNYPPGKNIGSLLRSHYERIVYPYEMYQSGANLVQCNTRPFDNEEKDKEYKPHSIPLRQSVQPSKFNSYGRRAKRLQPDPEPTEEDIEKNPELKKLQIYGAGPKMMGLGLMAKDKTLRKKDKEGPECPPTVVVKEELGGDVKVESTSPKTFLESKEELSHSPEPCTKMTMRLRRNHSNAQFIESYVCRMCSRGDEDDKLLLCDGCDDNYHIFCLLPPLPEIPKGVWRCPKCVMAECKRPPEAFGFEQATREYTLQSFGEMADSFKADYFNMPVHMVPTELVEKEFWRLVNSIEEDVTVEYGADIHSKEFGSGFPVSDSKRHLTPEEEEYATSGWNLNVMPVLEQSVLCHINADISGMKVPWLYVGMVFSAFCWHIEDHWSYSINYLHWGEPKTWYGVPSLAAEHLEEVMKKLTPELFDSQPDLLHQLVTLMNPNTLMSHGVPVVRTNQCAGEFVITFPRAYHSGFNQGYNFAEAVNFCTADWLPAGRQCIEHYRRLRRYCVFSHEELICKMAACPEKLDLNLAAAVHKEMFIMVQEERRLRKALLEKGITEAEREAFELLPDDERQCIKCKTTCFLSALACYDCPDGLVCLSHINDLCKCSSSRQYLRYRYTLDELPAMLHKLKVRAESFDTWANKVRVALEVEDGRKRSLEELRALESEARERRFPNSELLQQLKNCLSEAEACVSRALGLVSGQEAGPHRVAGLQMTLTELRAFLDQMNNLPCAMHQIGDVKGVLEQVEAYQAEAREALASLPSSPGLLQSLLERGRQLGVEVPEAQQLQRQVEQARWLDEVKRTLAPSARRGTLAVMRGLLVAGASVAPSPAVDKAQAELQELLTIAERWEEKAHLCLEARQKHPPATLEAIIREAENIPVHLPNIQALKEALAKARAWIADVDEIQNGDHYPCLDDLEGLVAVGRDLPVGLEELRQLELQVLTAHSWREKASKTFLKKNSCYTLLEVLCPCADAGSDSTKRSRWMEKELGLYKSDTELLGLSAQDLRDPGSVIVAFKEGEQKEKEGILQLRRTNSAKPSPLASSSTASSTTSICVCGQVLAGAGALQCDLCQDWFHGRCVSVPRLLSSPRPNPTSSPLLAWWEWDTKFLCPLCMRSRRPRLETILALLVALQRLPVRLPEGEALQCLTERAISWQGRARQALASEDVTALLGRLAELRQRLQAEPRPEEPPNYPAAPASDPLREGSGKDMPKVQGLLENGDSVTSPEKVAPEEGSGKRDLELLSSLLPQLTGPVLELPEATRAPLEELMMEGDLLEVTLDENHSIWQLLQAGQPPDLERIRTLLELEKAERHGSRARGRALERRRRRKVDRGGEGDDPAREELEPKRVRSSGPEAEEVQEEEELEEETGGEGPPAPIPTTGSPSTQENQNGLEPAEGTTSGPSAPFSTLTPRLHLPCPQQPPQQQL

With `Cc1c(O)c(=O)ccn1C` [DFP, Deferiprone] as the compound, how does the IC50 (KDM5C (Jarid1C)) read?
Its IC50 is 5.6 µM.

And the IC50 (KDM4A (JMJD2A))?
Its IC50 is greater than 25 µM.

What about the IC50 (MCF-7) of the same compound?
Its IC50 is 134 µM.

What about the IC50 (MDA-MB-231) of the same compound?
The IC50 was 112 µM.

And the IC50 (VERO)?
The IC50 was 85.9 µM.
